# Assay results: patent US20100010098A1, “POLYMORPHS OF RASAGILINE HYDROCHLORIDE” (priority 2008, published 2010)
# Structures can show the parent of a compound that is named as a salt. Where two headings read alike, the source gives them in different places.
# Tests used:
# [1] = after storage for 4 weeks at 55° C./90% relative humidity
# [2] = solid state; suspension with a liquid; compared with Form I
# Experimental: 9 mg of rasagiline HCl Form I was suspended in 0.15 ml 2-PrOH and stirred for 11 days at 70° C.
# b) 50 mg of rasagiline HCl Form I was suspended in 0.23 ml 2-PrOH and stirred for 7 days at 5° C.
# 20 mg of Form II was added to a suspension of 1.49 g Form III in 6 ml 2-PrOH. After 4 days solid material was isolated by filtration, washed with diethyl ether and was dried overnight at 40° C. in vacuo.
Chemical Purity (HPLC) ([1]; hydrochloride),Color Change ([1]; hydrochloride),Water uptake ([1]; hydrochloride),Chemical Purity (HPLC) [1],Color Change [1],Water uptake [1],Structure (SMILES),relative stability of the polymorphic form [2]
100%,No,No,–,–,–,"C#CCN[C@@H]1CCc2ccccc21 [Form II rasagiline hydrochloride, rasagiline hydrochloride]",more stable in the solid state than the crystalline Form I
–,–,–,97.1%,"Yes, brown color",Yes,"C#CCN[C@@H]1CCc2ccccc21 [rasagiline mesylate, reference compound]",–
